In brackets after ≈: the same amount, converted by molar mass.
Legend:
Staphylococcus aureus [1] = assay: Antibacterial activity against methicillin resistant Staphylococcus aureus N 315 assessed as reduction in bacterial cell growth incubated for overnight by two-fold serial dilution method; format: functional
Aspergillus flavus = assay: Antifungal activity against Aspergillus flavus ATCC 16870 assessed as reduction in fungal cell growth incubated for 48 hrs by two-fold serial dilution method; format: functional; conditions: ATCC 16870, 48 h
Bacillus subtilis = assay: Antibacterial activity against Bacillus subtilis ATCC 6633 assessed as reduction in bacterial cell growth incubated for overnight by two-fold serial dilution method; format: functional
[2] = Inhibition of Saccharomyces cerevisiae CGMCC 2.145 chitin synthase using GlcNAc and UDP-GlcNAc as substrate incubated for 60 mins by microplate reader analysis
Pseudomonas aeruginosa = assay: Antibacterial activity against Pseudomonas aeruginosa ATCC 9027 assessed as reduction in bacterial cell growth incubated for overnight by two-fold serial dilution method; format: functional
Escherichia coli = assay: Antibacterial activity against Escherichia coli JM109 assessed as reduction in bacterial cell growth incubated for overnight by two-fold serial dilution method; format: functional
Staphylococcus aureus [3] = assay: Antibacterial activity against Staphylococcus aureus ATCC 25923 assessed as reduction in bacterial cell growth incubated for overnight by two-fold serial dilution method; format: functional
Candida albicans = assay: Antifungal activity against Candida albicans ATCC 76615 assessed as reduction in fungal cell growth incubated for 48 hrs by two-fold serial dilution method; format: functional; conditions: ATCC 76615, 48 h
Cryptococcus neoformans = assay: Antifungal activity against Cryptococcus neoformans ATCC 32719 assessed as reduction in fungal cell growth incubated for 48 hrs by two-fold serial dilution method; format: functional; conditions: ATCC 32719, 48 h
Proteus vulgaris = assay: Antibacterial activity against Bacillus proteus ATCC 8427 assessed as reduction in bacterial cell growth incubated for overnight by two-fold serial dilution method; format: functional
Saccharomyces cerevisiae = assay: Inhibition of Saccharomyces cerevisiae CGMCC 2.145 chitin synthase using GlcNAc and UDP-GlcNAc as substrate at 300 ug/ml incubated for 60 mins by microplate reader analysis relative to control

SMILES	MIC (Staphylococcus aureus [1])	MIC (Aspergillus flavus)	MIC (Bacillus subtilis)	IC50 [2]	MIC (Pseudomonas aeruginosa)	MIC (Escherichia coli)	MIC (Staphylococcus aureus [3])	MIC (Candida albicans)	MIC (Cryptococcus neoformans)	MIC (Proteus vulgaris)	inhibition (Saccharomyces cerevisiae)
Cl.O=C1CCc2c(cccc2N2CCN(C[C@@H](O)CNc3ccc(Br)cc3)CC2)N1	128 µg/mL	128 µg/mL	64 µg/mL	350 µM	128 µg/mL	256 µg/mL	64 µg/mL	64 µg/mL	128 µg/mL	128 µg/mL	–
Cl.O=C1CCc2c(cccc2N2CCN(C[C@@H](O)CNc3ccccc3)CC2)N1	128 µg/mL	128 µg/mL	128 µg/mL	190 µM	128 µg/mL	128 µg/mL	128 µg/mL	128 µg/mL	128 µg/mL	256 µg/mL	–
Cl.O=C1CCc2c(cccc2N2CCN(C[C@H](O)CNc3ccccc3)CC2)N1	128 µg/mL	128 µg/mL	256 µg/mL	170 µM	256 µg/mL	256 µg/mL	256 µg/mL	64 µg/mL	256 µg/mL	128 µg/mL	–
Cl.O=C1CCc2c(cccc2N2CCN(C[C@H](O)CNc3ccc(Cl)cc3)CC2)N1	128 µg/mL	128 µg/mL	128 µg/mL	380 µM	256 µg/mL	128 µg/mL	128 µg/mL	32 µg/mL	256 µg/mL	128 µg/mL	–
CCCCNC[C@@H](O)CN1CCN(c2cccc3c2CCC(=O)N3)CC1.Cl	256 µg/mL	256 µg/mL	256 µg/mL	310 µM	256 µg/mL	256 µg/mL	256 µg/mL	128 µg/mL	128 µg/mL	256 µg/mL	–
CCCCNC[C@H](O)CN1CCN(c2cccc3c2CCC(=O)N3)CC1.Cl	256 µg/mL	512 µg/mL	512 µg/mL	340 µM	128 µg/mL	128 µg/mL	256 µg/mL	64 µg/mL	256 µg/mL	256 µg/mL	–
COc1ccc(NC[C@@H](O)CN2CCN(c3cccc4c3CCC(=O)N4)CC2)cc1.Cl	128 µg/mL	256 µg/mL	128 µg/mL	120 µM	256 µg/mL	64 µg/mL	128 µg/mL	64 µg/mL	128 µg/mL	128 µg/mL	–
Cl.O=C1CCc2c(cccc2N2CCN(C[C@@H](O)CNc3ccc(Cl)cc3)CC2)N1	64 µg/mL	128 µg/mL	64 µg/mL	360 µM	256 µg/mL	128 µg/mL	64 µg/mL	32 µg/mL	128 µg/mL	128 µg/mL	–
Cl.O=C1CCc2c(cccc2N2CCN(C[C@H](O)CNc3ccc(Br)cc3)CC2)N1	64 µg/mL	64 µg/mL	128 µg/mL	330 µM	128 µg/mL	128 µg/mL	64 µg/mL	128 µg/mL	128 µg/mL	256 µg/mL	–
COc1ccc(NC[C@H](O)CN2CCN(c3cccc4c3CCC(=O)N4)CC2)cc1.Cl	128 µg/mL	128 µg/mL	256 µg/mL	120 µM	128 µg/mL	32 µg/mL	64 µg/mL	32 µg/mL	256 µg/mL	256 µg/mL	–
Cl.O=C1CCc2c(cccc2N2CCN(CC(O)CNCc3ccc(Cl)cc3)CC2)N1 (racemic)	256 µg/mL	256 µg/mL	256 µg/mL	–	256 µg/mL	256 µg/mL	256 µg/mL	128 µg/mL	256 µg/mL	128 µg/mL	42.5%
Cl.O=C1CCc2c(cccc2N2CCN(CC(O)Cn3ccnc3)CC2)N1 (racemic)	128 µg/mL	256 µg/mL	64 µg/mL	470 µM	128 µg/mL	128 µg/mL	64 µg/mL	64 µg/mL	256 µg/mL	128 µg/mL	53.3%
Cl.O=C1CCc2c(cccc2N2CCN(CC(O)CNc3ccccc3)CC2)N1 (racemic)	128 µg/mL	128 µg/mL	128 µg/mL	150 µM	256 µg/mL	256 µg/mL	128 µg/mL	64 µg/mL	128 µg/mL	128 µg/mL	62.7%
Cl.O=C1CCc2c(cccc2N2CCN(CC(O)CNc3ccccc3Cl)CC2)N1 (racemic)	128 µg/mL	128 µg/mL	128 µg/mL	470 µM	256 µg/mL	128 µg/mL	64 µg/mL	32 µg/mL	512 µg/mL	64 µg/mL	52.4%
Cl.O=C1CCc2c(cccc2N2CCN(CC(O)CNc3ccc(Cl)cc3)CC2)N1 (racemic)	64 µg/mL	256 µg/mL	64 µg/mL	360 µM	128 µg/mL	128 µg/mL	64 µg/mL	32 µg/mL	256 µg/mL	128 µg/mL	59.3%
Cl.O=C1CCc2c(cccc2N2CCN(CC(O)CNc3ccc(Br)cc3)CC2)N1 (racemic)	128 µg/mL	64 µg/mL	64 µg/mL	380 µM	256 µg/mL	256 µg/mL	64 µg/mL	64 µg/mL	256 µg/mL	128 µg/mL	55.4%
Cl.O=C1CCc2c(cccc2N2CCN(CC(O)CN3CCCCCC3)CC2)N1 (racemic)	512 µg/mL	256 µg/mL	256 µg/mL	–	256 µg/mL	256 µg/mL	256 µg/mL	128 µg/mL	256 µg/mL	256 µg/mL	45.4%
Cl.O=C1CCc2c(cccc2N2CCN(CC(O)CN(CCO)CCO)CC2)N1 (racemic)	512 µg/mL	256 µg/mL	256 µg/mL	–	256 µg/mL	256 µg/mL	256 µg/mL	128 µg/mL	256 µg/mL	256 µg/mL	34.5%
COc1ccc(NCC(O)CN2CCN(c3cccc4c3CCC(=O)N4)CC2)cc1.Cl (racemic)	128 µg/mL	128 µg/mL	128 µg/mL	100 µM	128 µg/mL	64 µg/mL	64 µg/mL	32 µg/mL	128 µg/mL	256 µg/mL	84.9%
Cl.O=C1CCc2c(cccc2N2CCN(CC(O)CN3CCCCC3)CC2)N1 (racemic)	512 µg/mL	256 µg/mL	256 µg/mL	–	256 µg/mL	128 µg/mL	256 µg/mL	64 µg/mL	256 µg/mL	256 µg/mL	32.4%
Cl.O=C1CCc2c(cccc2N2CCN(CC(O)CN3CCCC3)CC2)N1 (racemic)	256 µg/mL	256 µg/mL	256 µg/mL	–	512 µg/mL	128 µg/mL	256 µg/mL	128 µg/mL	256 µg/mL	256 µg/mL	49.9%
Cl.O=C1CCc2c(cccc2N2CCN(CC(O)CN3CCOCC3)CC2)N1 (racemic)	128 µg/mL	256 µg/mL	128 µg/mL	–	128 µg/mL	128 µg/mL	256 µg/mL	64 µg/mL	256 µg/mL	128 µg/mL	44.7%
Cl.O=C1CCc2c(cccc2N2CCN(CC(O)CN3CCNCC3)CC2)N1 (racemic)	256 µg/mL	256 µg/mL	128 µg/mL	–	128 µg/mL	256 µg/mL	256 µg/mL	128 µg/mL	256 µg/mL	256 µg/mL	38.6%
CCCCNCC(O)CN1CCN(c2cccc3c2CCC(=O)N3)CC1.Cl (racemic)	128 µg/mL	256 µg/mL	256 µg/mL	370 µM	256 µg/mL	256 µg/mL	256 µg/mL	64 µg/mL	256 µg/mL	256 µg/mL	63.7%
NC(=O)OC[C@H](O)[C@@H](O)[C@H](N)C(=O)N[C@H](C(=O)O)[C@H]1O[C@@H](n2cc(CO)c(=O)[nH]c2=O)[C@H](O)[C@@H]1O [POLYOXIN B]	–	32 µg/mL (≈ 63.1 µM)	–	180 µM	–	–	–	32 µg/mL (≈ 63.1 µM)	8 µg/mL (≈ 15.8 µM)	–	85.1%

Reference: ChEMBL document CHEMBL4359852, “Design, synthesis and biological evaluation of novel 5-(piperazin-1-yl)quinolin-2(1H)-one derivatives as potential chitin synthase inhibitors and antifungal agents” (Eur J Med Chem, 2019)
